The record followed here is patent US12448389B2, “BRM targeting compounds and associated methods of use” (Prelude Therapeutics Incorporated, priority 2020, dated 2025).

Molecules are shown by their SMILES.

What is called DC50 is the concentration giving 50% degradation.

One assay has as its target T1, SMARCA4 (Homo sapiens, UniProt P51532).
T1 construct: endogenous in cells; host or cells: NCI-H520 (given as NCIH520 / NCIH1520 / H520)
Put plainly: SMARCA4 protein degradation in NCIH520 cells by In Cell Western (ICW). In kind it is cell-based. To be noted: highest concentration 1 μM; for DC50: H520 cells, overnight incubation (maximum 18 hours), read-out: DC50 (SM4_H520): SMARCA4 degradation potency; for Dmax: NCI-H520, overnight incubation (maximum 18 hours), read-out: Dmax % (SM4_H520): maximum SMARCA4 degradation within the concentrations tested. As for the experimental part:
(§1) Compounds were dissolved in DMSO to make 10 mM stock and 3-fold series dilutions were further conducted keeping the highest concentration 10 μM. NCIH11693 and NCIH1520 cells were maintained in PRMI 1640 medium (Corning Cellgro, Catalog #: 10-040-CV) supplemented with 10% v/v FBS (GE Healthcare, Catalog #: SH30910.03) by splitting 1:3 twice a week.
(§2) SMACRA2 and SMARCA4 Protein Degradation DC50 Values in NCIH1693 and NCIH520 Cells by in Cell Western (ICW) Analysis.
(§3) Cells were trypsinized and 30 thousand cells/well were seeded into 384-well plates and were allowed to grow for 1-2 hours at 37° C. Eight-point, 3-fold serial dilutions of compounds from 0.5 mM stocks were added to the cells (using digital Dispenser D300-Tecan, keeping highest concentration 1 μM and normalizing with DMSO at the highest dispensed volume). Plates were incubated at 37° C. for overnight (maximum 18 hours). Cells incubated with DMSO was used as a vehicle control.
(§4) To perform In Cell Western, medium was removed from all the wells leaving cells attached to the surface. After removing the medium, cells were fixed within the plates with 40 μL of 4% formaldehyde by incubating at room temperature for 30 minutes, and then permeabilized with wash buffer (1×PBS with 0.1% Triton X-100) by washing the plate 5 times with 50 μL/well. Before labeling with primary antibodies, cells were blocked with 30 μL/well of blocking buffer (Licor Odyssey blocking buffer PBS #927-40000) for 30 minutes at room temperature. To measure SMARCA2 or SMARCA4 proteins, cells were labeled with 20 μL/well of anti SMARCA2 or SMACRA4 antibodies (Cell Signaling BRM #11966S 1:800, Cell Signaling BRG #49360S 1:800) diluted in Li-Cor Odyssey blocking buffer-PBS #927-40000, followed by overnight incubation at 4° C.
(§5) The next day, plates were washed 5×5 minutes with 50 μL/well of washing buffer to remove all the excess primary antibody and then 20 μL from a mixture of secondary antibody and fluorescent DNA specific dye (Goat anti rabbit 1:500 IRDye-800CW #92632211, and DRAQ5™ 1:2000-#ab108410) was added to each well. Plates were incubated for 1 hour at room temperature with gentle rocking. Cells were washed 5 times with 50 μL/well wash buffer, followed by one last wash with DI water, followed by 10 mins drying at 37° C. oven before scanning. Plates were scanned using Li-Cor Odyssey CLx imaging system to acquire integrated intensities at 700 nm and 800 nm. SMARCA signals were normalized to total cell count and then these normalized values were used to calculate the percent degradation relative to DMSO control and maximum inhibition. DC50s were calculated by using the GraphPad Prism4 program based on sigmoidal dose response equation ([Inhibitor] vs. normalized response-Variable slope).
(§6) In Table 36, the DC50/Dmax% (SM2_H520) refers to SMARCA2 degradation potency/maximum SMARCA2 degradation within the concentrations in H520 cells and DC50/Dmax% (SM4_H520) refers to SMARCA4 degradation potency/maximum SMARCA4 degradation within the concentrations tested in H520 cells.

The next assay deals with T2, SMARCA2 (Homo sapiens, UniProt P51531).
T2 construct: endogenous in cells; host or cells: NCI-H520 (given as NCIH520 / NCIH1520 / H520)
Put plainly: SMARCA2 protein degradation in NCIH520 cells by In Cell Western (ICW). The conditions noted are these: highest concentration 1 μM; for DC50: H520 cells, overnight incubation (maximum 18 hours), read-out: DC50 (SM2_H520): SMARCA2 degradation potency; for Dmax: NCI-H520, overnight incubation (maximum 18 hours), read-out: Dmax % (SM2_H520): maximum SMARCA2 degradation within the concentrations tested. Type of assay: cell-based. The procedure:
as §1, §2, §3, §4, §5, §6

T2 sequence (P51531 whole entry): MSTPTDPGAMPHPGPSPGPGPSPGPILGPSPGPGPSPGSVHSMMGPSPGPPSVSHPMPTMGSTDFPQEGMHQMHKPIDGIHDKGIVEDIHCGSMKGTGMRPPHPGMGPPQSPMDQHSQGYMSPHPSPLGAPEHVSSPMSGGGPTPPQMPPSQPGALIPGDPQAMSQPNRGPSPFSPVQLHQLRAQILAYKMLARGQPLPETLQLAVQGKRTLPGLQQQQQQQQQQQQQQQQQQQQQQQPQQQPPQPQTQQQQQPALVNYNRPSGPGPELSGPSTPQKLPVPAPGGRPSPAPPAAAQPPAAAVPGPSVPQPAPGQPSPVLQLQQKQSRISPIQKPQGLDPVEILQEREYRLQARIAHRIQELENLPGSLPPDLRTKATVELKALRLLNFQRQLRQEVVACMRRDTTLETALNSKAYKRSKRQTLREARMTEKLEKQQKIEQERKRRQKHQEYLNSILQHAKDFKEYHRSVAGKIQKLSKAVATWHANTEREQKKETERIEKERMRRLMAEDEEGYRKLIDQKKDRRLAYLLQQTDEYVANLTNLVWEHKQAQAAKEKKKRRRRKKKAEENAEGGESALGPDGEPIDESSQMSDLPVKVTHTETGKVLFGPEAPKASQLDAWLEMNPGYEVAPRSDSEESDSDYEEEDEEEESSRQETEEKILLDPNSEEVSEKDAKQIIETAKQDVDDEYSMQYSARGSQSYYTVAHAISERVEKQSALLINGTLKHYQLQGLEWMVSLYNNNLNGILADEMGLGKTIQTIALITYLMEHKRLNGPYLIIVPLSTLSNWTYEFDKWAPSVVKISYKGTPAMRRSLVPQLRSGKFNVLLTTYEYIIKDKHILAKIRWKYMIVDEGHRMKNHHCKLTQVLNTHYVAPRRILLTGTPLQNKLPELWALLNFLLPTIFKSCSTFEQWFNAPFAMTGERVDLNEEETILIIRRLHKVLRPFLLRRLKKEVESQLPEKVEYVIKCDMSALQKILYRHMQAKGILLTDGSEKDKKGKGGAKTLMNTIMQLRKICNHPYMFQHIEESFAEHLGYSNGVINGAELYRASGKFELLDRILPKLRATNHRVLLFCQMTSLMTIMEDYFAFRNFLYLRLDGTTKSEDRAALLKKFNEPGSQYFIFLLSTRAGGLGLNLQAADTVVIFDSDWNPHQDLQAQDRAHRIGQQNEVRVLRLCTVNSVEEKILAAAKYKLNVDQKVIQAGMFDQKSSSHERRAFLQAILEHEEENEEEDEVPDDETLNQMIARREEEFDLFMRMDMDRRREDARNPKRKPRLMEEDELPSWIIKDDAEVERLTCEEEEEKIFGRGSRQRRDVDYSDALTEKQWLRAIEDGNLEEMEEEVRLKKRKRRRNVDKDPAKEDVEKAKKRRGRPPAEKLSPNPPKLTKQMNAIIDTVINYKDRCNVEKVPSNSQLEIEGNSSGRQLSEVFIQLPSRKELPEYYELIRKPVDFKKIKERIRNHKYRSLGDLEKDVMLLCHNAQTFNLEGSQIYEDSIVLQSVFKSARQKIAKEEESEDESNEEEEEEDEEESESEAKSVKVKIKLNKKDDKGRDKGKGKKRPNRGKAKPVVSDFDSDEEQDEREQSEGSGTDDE
T1 sequence (P51532 whole entry): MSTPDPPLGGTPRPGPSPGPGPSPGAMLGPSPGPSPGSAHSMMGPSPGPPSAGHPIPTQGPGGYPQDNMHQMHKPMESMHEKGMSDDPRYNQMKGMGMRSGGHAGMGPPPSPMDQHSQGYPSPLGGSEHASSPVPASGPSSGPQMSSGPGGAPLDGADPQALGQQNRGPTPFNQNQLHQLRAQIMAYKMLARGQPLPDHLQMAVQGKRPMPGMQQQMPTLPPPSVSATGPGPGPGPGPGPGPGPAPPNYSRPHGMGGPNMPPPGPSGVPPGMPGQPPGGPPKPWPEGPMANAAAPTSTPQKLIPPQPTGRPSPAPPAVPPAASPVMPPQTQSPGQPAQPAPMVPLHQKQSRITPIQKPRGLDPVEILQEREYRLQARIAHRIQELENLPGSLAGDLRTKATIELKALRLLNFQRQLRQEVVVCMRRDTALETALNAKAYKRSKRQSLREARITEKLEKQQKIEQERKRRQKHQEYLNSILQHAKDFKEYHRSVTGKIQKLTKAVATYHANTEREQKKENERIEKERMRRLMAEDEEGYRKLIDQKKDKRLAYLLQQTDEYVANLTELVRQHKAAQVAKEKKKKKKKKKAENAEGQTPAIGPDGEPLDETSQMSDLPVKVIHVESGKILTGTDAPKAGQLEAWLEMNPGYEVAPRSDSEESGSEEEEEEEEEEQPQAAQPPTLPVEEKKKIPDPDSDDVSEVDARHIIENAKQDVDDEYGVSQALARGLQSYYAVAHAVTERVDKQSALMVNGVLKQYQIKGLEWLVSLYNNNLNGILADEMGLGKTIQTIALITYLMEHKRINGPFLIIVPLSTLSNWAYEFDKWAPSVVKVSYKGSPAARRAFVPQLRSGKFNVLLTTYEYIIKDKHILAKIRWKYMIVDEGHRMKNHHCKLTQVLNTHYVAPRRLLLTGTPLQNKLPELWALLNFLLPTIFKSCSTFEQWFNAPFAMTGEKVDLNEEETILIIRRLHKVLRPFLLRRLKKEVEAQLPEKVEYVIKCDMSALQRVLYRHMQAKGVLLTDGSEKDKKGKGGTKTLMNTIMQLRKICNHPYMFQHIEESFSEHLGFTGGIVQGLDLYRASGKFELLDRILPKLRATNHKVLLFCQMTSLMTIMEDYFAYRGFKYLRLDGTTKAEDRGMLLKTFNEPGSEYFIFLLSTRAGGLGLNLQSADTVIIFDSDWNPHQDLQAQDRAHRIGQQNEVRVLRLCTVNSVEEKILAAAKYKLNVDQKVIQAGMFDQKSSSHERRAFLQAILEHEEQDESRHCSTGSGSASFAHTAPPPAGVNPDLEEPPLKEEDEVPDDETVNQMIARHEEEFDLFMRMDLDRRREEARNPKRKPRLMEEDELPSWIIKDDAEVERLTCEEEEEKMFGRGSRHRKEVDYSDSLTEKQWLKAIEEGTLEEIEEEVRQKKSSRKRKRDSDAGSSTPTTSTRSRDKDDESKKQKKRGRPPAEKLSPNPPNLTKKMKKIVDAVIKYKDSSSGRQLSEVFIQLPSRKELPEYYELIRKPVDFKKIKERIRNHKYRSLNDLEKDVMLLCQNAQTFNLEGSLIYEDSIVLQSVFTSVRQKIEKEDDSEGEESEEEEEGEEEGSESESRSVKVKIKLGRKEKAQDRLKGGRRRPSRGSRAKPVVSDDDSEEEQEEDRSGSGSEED

For `O=C1CCC(N2Cc3cc(CCCN4CCC(CCc5cnc(N6CCN7c8cc(-c9ccccc9O)nnc8NC[C@@H]7C6)nc5)CC4)ccc3C2=O)C(=O)N1` (stereo partly drawn) [Example 3, 3-(5-(3-(4-(2-(2-((R)-2-(2-hydroxyphenyl)-5,6,6a,7,9,10-hexahydro-8H-pyrazino[1′,2′:4,5]pyrazino[2,3-c]pyridazin-8-yl)pyrimidin-5-yl)ethyl)piperidin-1-yl)propyl)-1-oxoisoindolin-2-yl)piperidine-2,6-dione], on SMARCA4, the DC50 is less than 100 nM and the Dmax is more than 75%. Moreover, on SMARCA2, the half-maximal degradation concentration (DC50) is less than 100 nM and the Dmax was more than 75%.

As for `O=C1CCC(N2Cc3cc(CCN4CCC(c5cnc(N6CCN7c8cc(-c9ccccc9O)nnc8NC[C@@H]7C6)nc5)CC4)ccc3C2=O)C(=O)N1` (stereo partly drawn) [Example 4, 3-(5-(2-(4-(2-((R)-2-(2-hydroxyphenyl)-5,6,6a,7,9,10-hexahydro-8H-pyrazino[1′,2′:4,5]pyrazino[2,3-c]pyridazin-8-yl)pyrimidin-5-yl)piperidin-1-yl)ethyl)-1-oxoisoindolin-2-yl)piperidine-2,6-dione], on SMARCA4, the DC50 is less than 100 nM and the Dmax is more than 75%. Further, on SMARCA2, the 50% degradation concentration (DC50) is less than 100 nM and the Dmax is more than 75%.

With `O=C1CCC(N2Cc3cc(CCN4CCC(CCc5cnc(N6CCN7c8cc(-c9ccccc9O)nnc8NC[C@@H]7C6)nc5)CC4)ccc3C2=O)C(=O)N1` (stereo partly drawn) [Example 5, 3-(5-(2-(4-(2-(2-((R)-2-(2-hydroxyphenyl)-5,6,6a,7,9,10-hexahydro-8H-pyrazino[1′,2′:4,5]pyrazino[2,3-c]pyridazin-8-yl)pyrimidin-5-yl)ethyl)piperidin-1-yl)ethyl)-1-oxoisoindolin-2-yl)piperidine-2,6-dione], the DC50 at SMARCA4 and on SMARCA2 was less than 100 nM each time. Besides, the Dmax on SMARCA4 and on SMARCA2 was more than 75% throughout.

In the case of `O=C1CCC(N2Cc3cc(CCN4CC=C(c5cnc(N6CCN7c8cc(-c9ccccc9O)nnc8NC[C@H]7C6)nc5)CC4)ccc3C2=O)C(=O)N1` (stereo partly drawn) [Example 6, 3-(5-(2-(4-(2-((S)-2-(2-hydroxyphenyl)-5,6,6a,7,9,10-hexahydro-8H-pyrazino[1′,2′:4,5]pyrazino[2,3-c]pyridazin-8-yl)pyrimidin-5-yl)-3,6-dihydropyridin-1(2H)-yl)ethyl)-1-oxoisoindolin-2-yl)piperidine-2,6-dione], on SMARCA4, the DC50 was less than 100 nM and the Dmax was more than 75%. Further, on SMARCA2, the DC50 was less than 100 nM and the Dmax was more than 75%.

For `O=C1CCC(N2Cc3cc(CCN4CCC(/C=C/c5cnc(N6CCN7c8cc(-c9ccccc9O)nnc8NC[C@H]7C6)nc5)CC4)ccc3C2=O)C(=O)N1` (stereo partly drawn) [Example 7, 3-(5-(2-(4-((E)-2-(2-((S)-2-(2-hydroxyphenyl)-5,6,6a,7,9,10-hexahydro-8H-pyrazino[1′,2′:4,5]pyrazino[2,3-c]pyridazin-8-yl)pyrimidin-5-yl)vinyl)piperidin-1-yl)ethyl)-1-oxoisoindolin-2-yl)piperidine-2,6-dione], at SMARCA4, the DC50 was less than 100 nM and the Dmax was more than 75%. Moreover, on SMARCA2, the 50% degradation concentration (DC50) was less than 100 nM and the Dmax is more than 75%.

`O=C1CCC(N2Cc3cc(CCN4CCC(OCCN5CCC(N6CCN7c8cc(-c9ccccc9O)nnc8NC[C@H]7C6)CC5)CC4)ccc3C2=O)C(=O)N1` (stereo partly drawn) [Example 8, 3-(5-(2-(4-(2-(4-((S)-2-(2-hydroxyphenyl)-5,6,6a,7,9,10-hexahydro-8H-pyrazino[1′,2′:4,5]pyrazino[2,3-c]pyridazin-8-yl)piperidin-1-yl)ethoxy)piperidin-1-yl)ethyl)-1-oxoisoindolin-2-yl)piperidine-2,6-dione]: the DC50 on SMARCA4 and at SMARCA2 was less than 100 nM in each case. In addition, the Dmax at SMARCA4 and at SMARCA2 was more than 75% each time.

Consider `O=C1CCC(N2Cc3cc(CN4CCC(OCCN5CCC(N6CCN7c8cc(-c9ccccc9O)nnc8NC[C@H]7C6)CC5)CC4)ccc3C2=O)C(=O)N1` (stereo partly drawn) [Example 9, 3-(5-((4-(2-(4-((S)-2-(2-hydroxyphenyl)-5,6,6a,7,9,10-hexahydro-8H-pyrazino[1′,2′:4,5]pyrazino[2,3-c]pyridazin-8-yl)piperidin-1-yl)ethoxy)piperidin-1-yl)methyl)-1-oxoisoindolin-2-yl)piperidine-2,6-dione], for which, on SMARCA4, the half-maximal degradation concentration (DC50) is less than 100 nM and the Dmax was 50 to 75%. On SMARCA2, the half-maximal degradation concentration (DC50) is less than 100 nM and the Dmax is more than 75%.

Regarding `O=C1CCC(N2Cc3cc(CN4CCC(c5cnc(N6CCN7c8cc(-c9ccccc9O)nnc8NC[C@H]7C6)nc5)CC4)ccc3C2=O)C(=O)N1` (stereo partly drawn) [Example 10, 3-(5-((4-(2-((S)-2-(2-hydroxyphenyl)-5,6,6a,7,9,10-hexahydro-8H-pyrazino[1′,2′:4,5]pyrazino[2,3-c]pyridazin-8-yl)pyrimidin-5-yl)piperidin-1-yl)methyl)-1-oxoisoindolin-2-yl)piperidine-2,6-dione], at SMARCA4, the DC50 was less than 100 nM and the Dmax is 50 to 75%. Besides, on SMARCA2, the half-maximal degradation concentration (DC50) is less than 100 nM and the Dmax was more than 75%.

Consider `O=C1CCC(N2C(=O)c3ccc(N4CCN(CCCN5CCC(N6CCN7c8cc(-c9ccccc9O)nnc8NC[C@H]7C6)CC5)CC4)cc3C2=O)C(=O)N1` (stereo partly drawn) [Example 11, 2-(2,6-Dioxopiperidin-3-yl)-5-(4-(3-(4-((S)-2-(2-hydroxyphenyl)-5,6,6a,7,9,10-hexahydro-8H-pyrazino[1′,2′:4,5]1pyrazino[2,3-c]pyridazin-8-yl)piperidin-1-yl)propyl)piperazin-1-yl) isoindoline-1,3-dione], for which, at SMARCA4, the half-maximal degradation concentration (DC50) is less than 100 nM and the Dmax was more than 75%. For the same compound, at SMARCA2, the DC50 is less than 100 nM and the Dmax is more than 75%.

In the case of `O=C1CCC(N2C(=O)c3ccc(N4CCN(CCN5CCC(N6CCN7c8cc(-c9ccccc9O)nnc8NC[C@H]7C6)C5)CC4)cc3C2=O)C(=O)N1` (stereo partly drawn) [Example 12, 2-(2,6-Dioxopiperidin-3-yl)-5-(4-(2-(3-((S)-2-(2-hydroxyphenyl)-5,6,6a,7,9,10-hexahydro-8H-pyrazino[1′,2′:4,5]pyrazino[2,3-c]pyridazin-8-yl)pyrrolidin-1-yl)ethyl)piperazin-1-yl) isoindoline-1,3-dione], the 50% degradation concentration (DC50) at SMARCA4 and on SMARCA2 was less than 100 nM in each case. For the same compound, the figures for the Dmax at SMARCA4 and at SMARCA2 were 50 to 75% and more than 75%, respectively.

Turning to `O=C1CCC(N2C(=O)c3ccc(N4CCC(N5CCC(N6CCN7c8cc(-c9ccccc9O)nnc8NC[C@H]7C6)CC5)C4)cc3C2=O)C(=O)N1` (stereo partly drawn) [Example 13, 2-(2,6-Dioxopiperidin-3-yl)-5-(3-(4-((S)-2-(2-hydroxyphenyl)-5,6,6a,7,9,10-hexahydro-8H-pyrazino[1′,2′:4,5]pyrazino[2,3-c]pyridazin-8-yl)piperidin-1-yl)pyrrolidin-1-yl) isoindoline-1,3-dione], the 50% degradation concentration (DC50) at SMARCA4 and at SMARCA2 was less than 100 nM each time. The Dmax at SMARCA4 and on SMARCA2 was more than 75% throughout.

On to `O=C1CCC(N2C(=O)c3ccc(N4CCC(N5CCC(N6CCN7c8cc(-c9ccccc9O)nnc8NC[C@H]7C6)CC5)CC4)cc3C2=O)C(=O)N1` (stereo partly drawn) [Example 14, 2-(2,6-dioxopiperidin-3-yl)-5-(4-((S)-2-(2-hydroxyphenyl)-5,6,6a,7,9,10-hexahydro-8H-pyrazino[1′,2′:4,5]pyrazino[2,3-c]pyridazin-8-yl)-[1,4′-bipiperidin]-1′-yl) isoindoline-1,3-dione], for which, on SMARCA4, the DC50 was less than 100 nM and the Dmax was more than 75%. Moreover, on SMARCA2, the DC50 is less than 100 nM and the Dmax was more than 75%.
